This passage reports Ki results from BindingDB's records for PubMed 7520908 (Janssen Research Foundation, 1994).

Usually Ki stands for a dissociation constant, usually derived from enzyme kinetics or from competition with a known ligand. A higher Ki goes with a looser hold on the target.

For assay [1], the target named is 5-hydroxytryptamine receptor 1B (Rattus norvegicus, UniProt P28564).
Assay [2] addresses D(1A) dopamine receptor (Rattus norvegicus, UniProt P18901).
For assay [3], the target named is 5-hydroxytryptamine 1D receptor (Bos taurus, UniProt Q8MI13).
5-hydroxytryptamine 1D receptor, sequence (Q8MI13 whole entry): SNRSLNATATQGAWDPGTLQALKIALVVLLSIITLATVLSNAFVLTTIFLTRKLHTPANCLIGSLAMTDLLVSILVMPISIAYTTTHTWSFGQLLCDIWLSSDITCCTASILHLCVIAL
The target in assay [4] is 5-hydroxytryptamine receptor 2A (Rattus norvegicus, UniProt P14842).
5-hydroxytryptamine receptor 2A, sequence (P14842 whole entry): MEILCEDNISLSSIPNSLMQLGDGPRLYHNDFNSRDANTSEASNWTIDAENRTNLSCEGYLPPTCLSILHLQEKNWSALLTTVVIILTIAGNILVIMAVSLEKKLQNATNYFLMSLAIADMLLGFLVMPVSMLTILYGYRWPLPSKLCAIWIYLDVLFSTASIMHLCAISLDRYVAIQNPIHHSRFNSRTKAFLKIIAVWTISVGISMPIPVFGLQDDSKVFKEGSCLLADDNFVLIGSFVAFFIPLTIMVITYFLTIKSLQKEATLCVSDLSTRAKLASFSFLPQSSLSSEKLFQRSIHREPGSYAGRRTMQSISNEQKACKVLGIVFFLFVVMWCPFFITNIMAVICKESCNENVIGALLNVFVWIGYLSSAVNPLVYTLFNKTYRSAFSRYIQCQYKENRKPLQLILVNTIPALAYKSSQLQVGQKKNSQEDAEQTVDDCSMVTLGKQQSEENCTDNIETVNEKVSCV
The target in assay [5] is D(3) dopamine receptor (Rattus norvegicus, UniProt P19020).
D(3) dopamine receptor, sequence (P19020 whole entry): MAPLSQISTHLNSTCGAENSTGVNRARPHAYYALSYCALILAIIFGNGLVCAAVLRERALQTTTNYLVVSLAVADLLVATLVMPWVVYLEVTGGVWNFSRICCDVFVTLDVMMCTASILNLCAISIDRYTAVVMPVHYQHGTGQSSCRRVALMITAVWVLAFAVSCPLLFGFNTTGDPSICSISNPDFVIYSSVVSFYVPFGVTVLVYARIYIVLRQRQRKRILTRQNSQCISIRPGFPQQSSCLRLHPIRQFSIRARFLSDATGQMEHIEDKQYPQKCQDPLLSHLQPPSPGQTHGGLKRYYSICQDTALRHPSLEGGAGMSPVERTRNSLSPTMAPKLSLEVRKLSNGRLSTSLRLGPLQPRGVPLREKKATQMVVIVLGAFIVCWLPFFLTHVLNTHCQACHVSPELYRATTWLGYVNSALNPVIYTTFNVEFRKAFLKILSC
The target in assay [6] is T1, 5-hydroxytryptamine receptor 2C (Sus scrofa, UniProt G7ZKZ7).
T1 sequence (G7ZKZ7 whole entry): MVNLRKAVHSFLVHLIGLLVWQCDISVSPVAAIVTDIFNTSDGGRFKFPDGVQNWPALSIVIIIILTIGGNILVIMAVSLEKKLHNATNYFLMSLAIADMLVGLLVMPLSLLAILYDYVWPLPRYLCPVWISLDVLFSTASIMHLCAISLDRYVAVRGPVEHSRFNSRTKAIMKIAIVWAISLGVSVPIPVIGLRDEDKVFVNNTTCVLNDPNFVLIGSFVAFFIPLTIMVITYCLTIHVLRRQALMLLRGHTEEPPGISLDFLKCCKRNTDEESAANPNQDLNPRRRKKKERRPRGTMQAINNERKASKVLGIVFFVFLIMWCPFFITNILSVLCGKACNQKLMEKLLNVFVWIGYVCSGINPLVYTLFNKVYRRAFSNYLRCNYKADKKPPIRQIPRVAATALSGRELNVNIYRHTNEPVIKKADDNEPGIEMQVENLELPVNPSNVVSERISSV

In assay [7] the target is T2, 5-hydroxytryptamine receptor 3A (Mus musculus, UniProt P23979).
T2 sequence (P23979 whole entry): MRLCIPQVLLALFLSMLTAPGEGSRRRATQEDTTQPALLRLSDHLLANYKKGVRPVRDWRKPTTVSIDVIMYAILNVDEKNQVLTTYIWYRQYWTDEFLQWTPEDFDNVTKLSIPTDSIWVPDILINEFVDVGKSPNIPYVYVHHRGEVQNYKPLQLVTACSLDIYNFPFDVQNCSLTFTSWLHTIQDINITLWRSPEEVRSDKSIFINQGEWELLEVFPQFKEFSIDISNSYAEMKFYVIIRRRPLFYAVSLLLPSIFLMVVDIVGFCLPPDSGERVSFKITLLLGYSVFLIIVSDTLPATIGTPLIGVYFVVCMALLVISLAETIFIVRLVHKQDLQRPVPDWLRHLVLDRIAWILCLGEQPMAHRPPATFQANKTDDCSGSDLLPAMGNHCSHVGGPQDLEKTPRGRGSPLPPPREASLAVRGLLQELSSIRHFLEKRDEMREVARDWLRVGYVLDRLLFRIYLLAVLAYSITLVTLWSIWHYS

In assay [8] the target is 5-hydroxytryptamine receptor 1B (Homo sapiens, UniProt P28222).
5-hydroxytryptamine receptor 1B (Homo sapiens, UniProt P28222), sequence (P28222 whole entry): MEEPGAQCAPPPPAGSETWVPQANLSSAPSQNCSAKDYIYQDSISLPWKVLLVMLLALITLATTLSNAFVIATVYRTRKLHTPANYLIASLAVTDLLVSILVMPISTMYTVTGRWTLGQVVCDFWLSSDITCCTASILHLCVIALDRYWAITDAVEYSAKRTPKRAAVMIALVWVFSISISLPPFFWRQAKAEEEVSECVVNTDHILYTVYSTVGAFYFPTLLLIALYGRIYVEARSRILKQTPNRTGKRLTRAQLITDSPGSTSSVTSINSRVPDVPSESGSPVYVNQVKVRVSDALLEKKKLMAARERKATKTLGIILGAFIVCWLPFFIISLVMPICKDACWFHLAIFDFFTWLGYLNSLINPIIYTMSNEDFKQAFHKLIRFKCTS
In assay [9] the target is D(2) dopamine receptor (Rattus norvegicus, UniProt P61169).
D(2) dopamine receptor, sequence (P61169 whole entry): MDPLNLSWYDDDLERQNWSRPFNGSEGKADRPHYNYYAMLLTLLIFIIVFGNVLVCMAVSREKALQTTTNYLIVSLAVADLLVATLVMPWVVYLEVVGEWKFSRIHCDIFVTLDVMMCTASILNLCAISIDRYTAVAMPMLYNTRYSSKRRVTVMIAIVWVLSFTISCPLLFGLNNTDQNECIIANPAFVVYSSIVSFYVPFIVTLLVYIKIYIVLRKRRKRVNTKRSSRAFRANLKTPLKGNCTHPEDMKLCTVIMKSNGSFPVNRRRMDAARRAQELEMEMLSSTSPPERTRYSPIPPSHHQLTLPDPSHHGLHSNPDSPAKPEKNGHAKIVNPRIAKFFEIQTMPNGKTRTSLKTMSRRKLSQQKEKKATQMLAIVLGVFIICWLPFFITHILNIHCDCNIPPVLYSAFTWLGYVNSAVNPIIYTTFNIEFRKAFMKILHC

Each structure is given as a SMILES string. Where “and” joins values, the source holds several entries; their conditions need not be identical. Identical values can stand only once.

5-hydroxytryptamine receptor 1B (Rattus norvegicus, UniProt P28564), sequence (P28564 whole entry): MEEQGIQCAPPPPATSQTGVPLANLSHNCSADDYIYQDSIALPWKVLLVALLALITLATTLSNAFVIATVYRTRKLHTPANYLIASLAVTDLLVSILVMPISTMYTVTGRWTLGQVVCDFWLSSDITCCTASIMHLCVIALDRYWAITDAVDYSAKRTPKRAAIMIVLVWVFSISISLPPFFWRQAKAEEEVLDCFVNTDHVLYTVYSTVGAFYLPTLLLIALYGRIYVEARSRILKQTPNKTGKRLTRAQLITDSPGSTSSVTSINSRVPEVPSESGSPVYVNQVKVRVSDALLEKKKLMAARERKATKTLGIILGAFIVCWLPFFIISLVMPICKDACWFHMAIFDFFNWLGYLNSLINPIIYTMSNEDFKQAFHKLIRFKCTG
D(1A) dopamine receptor, sequence (P18901 whole entry): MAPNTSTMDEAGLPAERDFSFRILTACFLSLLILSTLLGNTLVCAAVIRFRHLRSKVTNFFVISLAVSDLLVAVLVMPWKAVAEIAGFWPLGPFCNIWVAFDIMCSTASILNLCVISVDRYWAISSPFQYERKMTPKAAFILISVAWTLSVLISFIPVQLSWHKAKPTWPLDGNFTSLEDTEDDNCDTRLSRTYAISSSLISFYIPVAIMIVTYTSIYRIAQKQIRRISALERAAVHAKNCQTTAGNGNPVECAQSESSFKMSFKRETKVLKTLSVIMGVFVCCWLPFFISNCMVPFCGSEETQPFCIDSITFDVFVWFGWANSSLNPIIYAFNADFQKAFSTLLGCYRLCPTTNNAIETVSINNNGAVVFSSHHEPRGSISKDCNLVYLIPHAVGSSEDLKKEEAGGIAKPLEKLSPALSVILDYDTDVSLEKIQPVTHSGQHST

For the compound `Cc1nc2n(c(=O)c1CCN1CCC(c3noc4cc(F)ccc34)CC1)CCCC2` [3-{2-[4-(6-Fluoro-benzo[d]isoxazol-3-yl)-piperidin-1-yl]-ethyl}-2-methyl-6,7,8,9-tetrahydro-pyrido[1,2-a]pyrimidin-4-one(risperidone)], the Ki in assay [1] was found to be 4000 nM.

As to `Cc1nc2n(c(=O)c1CCN1CCC(c3noc4cc(F)ccc34)CC1)CCCC2O` (stereo not given) [9-OH-risperidone], the Ki turned out to be 510 nM in assay [2]; 117 nM in assay [3]; 0.22 nM in assay [4]; 13 nM in assay [5]; 47 nM in assay [6]; 3500 nM in assay [1]. For the same compound, the Ki was above 10000 nM in [7]; 23 nM in assay [8]; 3.5 nM and 3.9 nM and 6.7 nM and 4.6 nM in assay [9].
